In patent US20250092085A1, “SAPONIN-BASED ADJUVANTS AND VACCINES” (ASOCIACIÓN CENTRO DE INVESTIGACIÓN COOPERATIVA EN …, priority 2021, published 2025):

System: anti-OVA IgG antibody response (chicken ovalbumin (OVA) as model antigen)
Experiment: In vivo experiment 1: adjuvant activity, anti-OVA IgG antibody production (ELISA of mouse sera)
Set-up: species or system C75BL6 mice
Settings: toxin-free OVA 20 μg + adjuvant 50 μg, three bi-weekly subcutaneous injections, endpoint sera day 42; compared with OVA alone and OVA + prior art compound 13
Method: Total IgG values were calculated using chicken ovalbumin (OVA) as a model antigen for four groups of mice treated with the following subcutaneous injections: i) toxin-free OVA antigen (20 μg) in combination with the known QA-based adjuvant 13 (50 μg) (identified as QA+OVA), ii) toxin-free OVA antigen (20 μg) in combination with the new adjuvant 25 (50 μg) (identified as QA(oxime)+OVA), iii) toxin-free OVA (20 μg) alone as no-adjuvant control group (identified as OVA) and iv) PBS only as negative control (identified as PBS).
Quantification of antibody production. Antibody titers against OVA protein, or against MUC1 and TnMUC1 peptides in the case of the self-adjuvanting vaccine constructs. were measured by an indirect enzyme-linked immunosorbent assay (ELISA). […] Absorbance (OD, 450 nm) was immediately measured using a BioTek® Synergy HT multi-detection microplate reader.
A straightforward proof-of-principle in vivo experiment was carried out to directly compare the adjuvant activities of prior art compound 13 and the compound of the invention 25 in terms of IgG antibody production, using chicken ovalbumin (OVA) as a model antigen. […] Endpoint sera after three immunizations were probed via ELISA assays by coating 96-well plates with toxin-free OVA (0.5 μg/ml) and total IgG optical density (OD) values (day 42) were calculated (FIG. 4).

C[C@H]1O[C@@H](OC2C(OC(=O)[C@]34CCC(C)(C)CC3C3=CCC5C6(C)CC[C@H](O)C(C)(C=NO)[C@@H]6CC[C@@]5(C)[C@]3(C)C[C@@H]4O)O[C@H](CO)[C@H](NC(=O)CCCCCCCCCCC(=O)O)C2O)C(O)C(O)[C@H]1O[C@@H]1OC[C@@H](O)C(O)C1O (stereo partly shown) [Compound 25]
anti-OVA IgG antibody response (total IgG optical density values): significantly higher
